# Source: patent US20090030024A1, “THIAZOLES AS FUNGICIDES” (priority 2005, published 2009)
# Marks after values point to notes of the source that are not given here.
# Assay: logP determination by retention times (calibration with alkan-2-ones)
# Details: not given
row,Compound,chromatographic logP
1,"CSc1nc(C)c(-c2ccnc(Nc3ccccc3)n2)s1 [Example 318, 4-[4-methyl-2-(methylthio)-1,3-thiazol-5-yl]-N-phenylpyrimidine-2-amine]",3.34
2,"Cc1nc(C)c(-c2ccnc(Nc3ccc4c(c3)OCCO4)n2)s1 [Example 387, N-(2,3-dihydro-1,4-benzodioxin-6-yl)-4-(2,4-dimethyl-1,3-thiazol-5-yl)pyrimidine-2-amine]",2.34
3,"Cc1nc(C2CCCCC2)sc1-c1ccnc(Nc2cccc(O)c2)n1 [Example 146, 3-{[4-(2-cyclohexyl-4-methyl-1,3-thiazol-5-yl)pyrimidin-2-yl]amino}phenol]",3.33
4,"CC(=O)c1cccc(Nc2nccc(-c3sc(C)nc3C)n2)c1 [Example 2, 1-(3-{[4-(2,4-dimethyl-1,3-thiazol-5-yl)pyrimidin-2-yl]amino}phenyl)ethanone]",2.14
5,"Cc1ncsc1-c1ccnc(Nc2cccc(C(F)(F)F)c2)n1 [Example 267, 4-(4-methyl-1,3-thiazol-5-yl)-N-[3-(trifluoromethyl)phenyl]pyrimidine-2-amine]",3.14
6,"CC(=O)c1cccc(Nc2nccc(-c3sc(C4CCCCC4)nc3C)n2)c1 [Example 6, 1-(3-{[4-(2-cyclohexyl-4-methyl-1,3-thiazol-5-yl)pyrimidin-2-yl]amino}phenyl)ethanone]",4.11
7,"Cc1nc(C)c(-c2ccnc(Nc3ccc(C(F)(F)F)cc3)n2)s1 [Example 189, 4-(2,4-dimethyl-1,3-thiazol-5-yl)-N-[4-(trifluoromethyl)phenyl]pyrimidine-2-amine]",3.56
8,"COc1ccc(Nc2nccc(-c3sc(C)nc3C)n2)cc1OC [Example 403, N-(3,4-dimethoxyphenyl)-4-(2,4-dimethyl-1,3-thiazol-5-yl)pyrimidine-2-amine]",2.16
9,"COCc1nc(C)c(-c2ccnc(Nc3ccc4c(c3)OCCO4)n2)s1 [Example 390, N-(2,3-dihydro-1,4-benzodioxin-6-yl)-4-[2-(methoxymethyl)-4-methyl-1,3-thiazol-5-yl]pyrimidine-2-amine]",2.49

# Same assay, conditions: * HPLC reversed-phase C18, 40° C., mobile phase 0.1% aqueous formic acid and acetonitrile, linear gradient 10% to 95% acetonitrile
row,Compound,logP
1,"CNc1nc(C)c(-c2ccnc(Nc3ccc(OC(C)=O)cc3)n2)s1 [Example 754, 4-({4-[4-methyl-2-(methylamine)-1,3-thiazol-5-yl]pyrimidin-2-yl}amino)phenylacetate]",1.73*
2,"CN(C)c1nc(C(F)(F)F)c(-c2ccnc(Nc3ccc4c(c3)OC(F)(F)C(F)(F)O4)n2)s1 [Example 780, 4-[2-(dimethylamine)-4-(trifluoromethyl)-1,3-thiazol-5-yl]-N-(2,2,3,3-tetrafluoro-2,3-dihydro-1,4-benzodioxin-6-yl)pyrimidine-2-amine]",5.28*

# Same assay, conditions: HPLC, reversed-phase C 18, EEC Directive 79/831 Annex V.A8; method *: 40° C., 0.1% aqueous formic acid and acetonitrile, linear gradient 10% to 95% acetonitrile
row,Compound,logP
1,"Cc1nc2c(s1)-c1nc(Nc3ccc(O)cc3)ncc1CC2 [Example 281, 4-[(2-methyl-4,5-dihydro[1,3]thiazole[4,5-h]quinazolin-8-yl)amino]phenol]",1.41*
2,"CNc1nc(C)c(-c2ccnc(Nc3cccc(C(C)=O)c3)n2)s1 [Example 27, 1-[3-({4-[4-methyl-2-(methylamine)-1,3-thiazol-5-yl]pyrimidin-2-yl}amino)phenyl]ethanone]",1.62*

# Same assay, conditions: logP(HCOOH), HCOOH
row,Compound,chromatographic logP
1,"Cc1nc(C)c(-c2nc(Cl)ncc2Cl)s1 [2,5-Dichloro-4-(2,4-dimethyl-1,3-thiazol-5-yl)pyrimidine]",2.47

# Same assay, conditions: logP, * HPLC reversed-phase C18, 40° C., mobile phase 0.1% aqueous formic acid and acetonitrile, linear gradient 10% to 95% acetonitrile
row,Compound,chromatographic logP
1,"CCc1nc(C)c(-c2ccnc(N(C(=O)OC)c3ccccc3)n2)s1 [Example 732, methyl-[4-(2-ethyl-4-methyl-1,3-thiazol-5-yl)pyrimidin-2-yl]phenylcarbamate]",2.59
2,"COCCNc1nc(C)c(-c2ccnc(Nc3ccc(N4CCCC4=O)cc3)n2)s1 [Example 752, 1-{4-[(4-{2-[(2-methoxyethyl)amino]-4-methyl-1,3-thiazol-5-yl}pyrimidin-2-yl)amino]phenyl}pyrrolidin-2-one]",1.51
3,"Cc1nc(C2CC2)sc1-c1ccnc(Nc2cccc(CN)c2)n1 [Example 537, N-[3-(aminomethyl)phenyl]-4-(2-cyclopropyl-4-methyl-1,3-thiazol-5-yl)pyrimidine-2-amine]",1.45
4,"Cc1nc(C2CC2)sc1-c1ccnc(Nc2cccc(Cl)c2)n1 [Example 422, N-(3-chlorophenyl)-4-(2-cyclopropyl-4-methyl-1,3-thiazol-5-yl)pyrimidine-2-amine]",3.94
5,"COCCNc1nc(C)c(-c2ccnc(Nc3cc(OC)cc(OC)c3)n2)s1 [Example 801, N-(3,5-dimethoxyphenyl)-4-{2-[(2-methoxyethyl)amino]-4-methyl-1,3-thiazol-5-yl}pyrimidine-2-amine]",1.96
6,"Cc1nc(-c2cccnc2)sc1-c1ccnc(Nc2ccccc2)n1 [Example 715, 4-(4-methyl-2-pyridin-3-yl-1,3-thiazol-5-yl)-N-phenylpyrimidine-2-amine]",3.04
7,"c1ccc(Nc2nccc(-c3cnc(-c4ccccc4)s3)n2)cc1 [Example 787, N-phenyl-4-(2-phenyl-1,3-thiazol-5-yl)pyrimidine-2-amine]",3.97
8,"COCc1nc(C)c(-c2ccnc(Nc3cccc(CNC(=O)OC(C)(C)C)c3)n2)s1 [Example 639, tert-butyl-[3-({4-[2-(methoxymethyl)-4-methyl-1,3-thiazol-5-yl]pyrimidin-2-yl}amino)benzyl]carbamate]",2.94
9,"COCc1nc(C)c(-c2ccnc(Nc3ccc(F)cc3)n2)s1 [Example 486, N-(4-fluorophenyl)-4-[2-(methoxymethyl)-4-methyl-1,3-thiazol-5-yl]pyrimidine-2-amine]",2.8
10,"COCC(C)Nc1nc(C)c(-c2ccnc(Nc3ccc(C(C)=O)cc3)n2)s1 (stereo not drawn) [Example 729, 1-{4-[(4-{2-[(2-methoxy-1-methylethyl)amino]-4-methyl-1,3-thiazol-5-yl}pyrimidin-2-yl)amino]phenyl}ethanone]",1.92
11,"COCCNc1nc(C)c(-c2ccnc(Nc3ccc(N(C)C)c(Cl)c3)n2)s1 [Example 805, 2-chloro-N4-(4-{2-[(2-methoxyethyl)amino]-4-methyl-1,3-thiazol-5-yl}pyrimidin-2-yl)-N1,N1-dimethylbenzene-1,4-diamine]",1.57
12,"COc1cc(Nc2nccc(-c3sc(SC)nc3C)n2)cc(OC)c1 [Example 407, N-(3,5-dimethoxyphenyl)-4-[4-methyl-2-(methylthio)-1,3-thiazol-5-yl]pyrimidine-2-amine]",3.39
13,"CCc1nc(C)c(-c2ccnc(Nc3ccc(F)c(F)c3)n2)s1 [Example 755, N-(3,4-difluorophenyl)-4-(2-ethyl-4-methyl-1,3-thiazol-5-yl)pyrimidine-2-amine]",3.44
14,"COc1cc(Nc2nccc(-c3sc(C)nc3C(F)(F)F)n2)cc(OC)c1 [Example 706, N-(3,5-dimethoxyphenyl)-4-[2-methyl-4-(trifluoromethyl)-1,3-thiazol-5-yl]pyrimidine-2-amine]",3.41
15,"CCc1nc(C)c(-c2ccnc(Nc3ccc(Cl)cc3)n2)s1 [Example 463, N-(4-chlorophenyl)-4-(2-ethyl-4-methyl-1,3-thiazol-5-yl)pyrimidine-2-amine]",3.72
16,"COc1cc(Nc2nccc(-c3sc(-c4cccnc4)nc3C)n2)cc(OC)c1OC [Example 713, 4-(4-methyl-2-pyridin-3-yl-1,3-thiazol-5-yl)-N-(3,4,5-trimethoxyphenyl)pyrimidine-2-amine]",2.56
17,"COCC(C)Nc1nc(C)c(-c2ccnc(Nc3cccc(NC(C)=O)c3)n2)s1 (stereo not drawn) [Example 569, N-{3-[(4-{2-[(2-methoxy-1-methylethyl)amino]-4-methyl-1,3-thiazol-5-yl}pyrimidin-2-yl)amino]phenyl}acetamide]",1.47
18,"COCc1nc(C)c(-c2ccnc(Nc3ccc(F)c(C)c3)n2)s1 [Example 478, N-(4-fluoro-3-methylphenyl)-4-[2-(methoxymethyl)-4-methyl-1,3-thiazol-5-yl]pyrimidine-2-amine]",3.14

# Same assay, conditions: logP, values marked *: HPLC on reversed-phase C 18, 40° C., mobile phase 0.1% aqueous formic acid and acetonitrile, linear gradient 10% to 95% acetonitrile
row,Compound,chromatographic logP
1,"Cc1nc(C(C)C)sc1-c1ccnc(Nc2ccc(N3CCCC3=O)cc2)n1 [Example 831, 1-(4-{[4-(2-isopropyl-4-methyl-1,3-thiazol-5-yl)pyrimidin-2-yl]amino}phenyl)pyrrolidin-2-one]",2.56
2,"COCCOc1nc(C)c(-c2ccnc(Nc3cccc(OC)c3)n2)s1 [Example 914, 4-[2-(2-methoxyethoxy)-4-methyl-1,3-thiazol-5-yl]-N-(3-methoxyphenyl)pyrimidine-2-amine]",2.92
3,"Cc1nc(C)c(-c2nc(Nc3ccccc3)ncc2Br)s1 [Example 909, 5-bromo-4-(2,4-dimethyl-1,3-thiazol-5-yl)-N-phenylpyrimidine-2-amine]",3.3
4,"COCCCNc1nc(C)c(-c2ccnc(Nc3ccc(F)c(C)c3)n2)s1 [Example 857, N-(4-fluoro-3-methylphenyl)-4-{2-[(3-methoxypropyl)amino]-4-methyl-1,3-thiazol-5-yl}pyrimidine-2-amine]",2.11
5,"CCc1nc(C)c(-c2nc(Nc3cc(OC)c(OC)c(OC)c3)ncc2Cl)s1 [Example 907, 5-chloro-4-(2-ethyl-4-methyl-1,3-thiazol-5-yl)-N-(3,4,5-trimethoxyphenyl)pyrimidine-2-amine]",3.2
6,"CCc1nc(C)c(-c2nc(Nc3ccccc3)ncc2Br)s1 [Example 902, 5-bromo-4-(2-ethyl-4-methyl-1,3-thiazol-5-yl)-N-phenylpyrimidine-2-amine]",3.82

# Same assay, conditions: values marked *: HPLC on reversed-phase C 18, 40° C., mobile phase 0.1% aqueous formic acid and acetonitrile, linear gradient 10% to 95% acetonitrile
row,Compound,logP
1,"COc1cc(Nc2nccc(-c3sc(N(C)C)nc3C)n2)cc(OC)c1OC [Example 850, 4-[2-(dimethylamine)-4-methyl-1,3-thiazol-5-yl]-N-(3,4,5-trimethoxyphenyl)pyrimidine-2-amine]",1.77*
